Activity calls are given as the source filed them. The rule behind the calls is not given here.

The source of these data is PubChem BioAssay AID504763 (Sanford-Burnham Center for Chemical Genomics, 2011).

The target in the assay is Hexokinase-1 (Homo sapiens) (UniProt P19367). Kind of assay: HK1 enzyme inhibitors – biochemical, selectivity assay for HKDC1 inhibitor project, dose response (AID 504763). Conditions: biochemical inhibition.
Sequence of Hexokinase-1 (Homo sapiens) (P19367 whole entry, looked up): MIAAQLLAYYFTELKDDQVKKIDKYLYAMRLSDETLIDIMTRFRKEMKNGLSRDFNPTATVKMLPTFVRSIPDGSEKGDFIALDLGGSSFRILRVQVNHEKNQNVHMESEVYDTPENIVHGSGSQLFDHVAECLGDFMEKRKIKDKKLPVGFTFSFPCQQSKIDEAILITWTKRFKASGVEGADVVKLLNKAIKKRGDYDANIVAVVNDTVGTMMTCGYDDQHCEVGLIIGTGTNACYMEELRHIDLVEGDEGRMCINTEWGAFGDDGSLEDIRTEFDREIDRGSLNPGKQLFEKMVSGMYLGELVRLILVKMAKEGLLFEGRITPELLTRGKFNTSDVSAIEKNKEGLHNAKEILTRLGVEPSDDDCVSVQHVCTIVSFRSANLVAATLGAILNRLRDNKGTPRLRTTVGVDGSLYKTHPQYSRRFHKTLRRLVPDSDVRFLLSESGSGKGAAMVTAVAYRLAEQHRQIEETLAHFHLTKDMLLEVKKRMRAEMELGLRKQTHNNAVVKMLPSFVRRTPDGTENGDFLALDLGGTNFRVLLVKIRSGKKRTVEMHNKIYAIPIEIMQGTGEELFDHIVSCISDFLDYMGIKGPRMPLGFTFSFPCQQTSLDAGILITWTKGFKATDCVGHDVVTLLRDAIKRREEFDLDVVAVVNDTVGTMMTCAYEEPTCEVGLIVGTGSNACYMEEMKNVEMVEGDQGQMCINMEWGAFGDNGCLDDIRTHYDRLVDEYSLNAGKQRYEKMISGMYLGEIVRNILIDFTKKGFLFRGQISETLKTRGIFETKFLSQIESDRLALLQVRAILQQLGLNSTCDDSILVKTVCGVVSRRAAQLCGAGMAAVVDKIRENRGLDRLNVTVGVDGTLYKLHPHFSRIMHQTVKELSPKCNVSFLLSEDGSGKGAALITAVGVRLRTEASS
On to `COCC(=O)OC1CCn2c1nc1c2C(=O)C(C)=C(NC(C)=O)C1=O` (stereo not given), for which the IC50 (commonly the concentration at which inhibition is half-maximal) was 2.15 µM.
Regarding `O=C(NCCc1ccccc1)c1cnn2c(C(F)F)cc(C3CC3)nc12`, the IC50 is 5.54 µM.
`Cc1ccc(NC2c3ncccc3C(=O)N2c2ccccc2C)cc1C` (stereo not given): the IC50 is > 80 µM (inactive).
On to `CC1COCC(C)N1C1=C(Cl)C(=O)c2ccccc2C1=O` (stereo not given), for which the IC50 was > 80 µM (inactive).
As for `COc1cc(/C=C(\C#N)c2nc3ccc(C)cc3[nH]2)cc([N+](=O)[O-])c1O`, the figure is 18 µM; as for `O=[N+]([O-])c1ccc(NN=Cc2ccc(O)cc2O)nc1`, > 80 µM (inactive).
On to `COc1ccc(CN2C(=O)c3cccnc3C2O)cc1` (stereo not given), for which the IC50 is > 80 µM (inactive).
As to `O=C1C(Cl)=C(NCCc2ccccc2)C(=O)c2ccccc21`, the IC50 was 18.5 µM.
The result for `C=CCn1c(SCC(=O)Nc2sc3c(c2C#N)CCC(C)C3)nc2cc(C(=O)O)ccc2c1=O` (stereo not given) reads > 80 µM (inactive); that for `Cc1cccc2c(N=NC(=O)c3ccc(NS(=O)(=O)c4cccs4)cc3)c(O)[nH]c12`, “inactive”; that for `COCc1cc(C2C(C(=O)c3ccco3)=C(O)C(=O)N2CCOCCO)ccc1O` (stereo not given), > 80 µM (inactive).
For `Cc1nc2c(O)c3c(c(O)c2nc1C)C1C=CC3CC1`, the IC50 is 2.08 µM.
As for `O=C(CNC(=O)/C=C/c1ccco1)N=Nc1c(O)[nH]c2ccccc12`, the figure is > 80 µM (inactive); as for `CCCc1nc2c(c(=O)c3ccccc3n2C)c(=O)n1-c1ccc(F)cc1`, 6.47 µM.
On to `Cc1cccc(C)c1Nc1nnc(SCc2cn3cccc(C)c3n2)s1`, for which the IC50 was > 80 µM (inactive).
In the case of `Cc1ccc(N=Cc2cc(Cc3ccccc3Cl)cc([N+](=O)[O-])c2O)c(O)c1`, the IC50 was > 80 µM (inactive).
Take `COC1(NS(=O)(=O)c2ccc(Br)cc2)C(C)=CC(=O)C=C1C`: the IC50 was > 80 µM (inactive).
On to `Oc1ccc(/C=N/Nc2ncc(Br)cn2)c(O)c1`, for which the IC50 is > 80 µM (inactive).
Consider `N#C/C(=C(/O)CCl)c1nc2c(s1)CCc1ccccc1-2`, for which the IC50 entry is “inactive”.
`CC(NC1=CC(=O)c2cccnc2C1=O)C(O)c1ccccc1` (stereo not given): the IC50 result was “inactive”.
